Reference: patent US10973810B2, “Methods for the treatment of neurological disorders” (Yumanity Therapeutics, Inc., priority 2017, dated 2021)

Assays:
yeast OLE1 = target: T1, yeast OLE1 (Saccharomyces cerevisiae, UniProt P21147, L450T/T449L); experiment: Growth of yeast surviving solely on yeast OLE1; type: cell-based; settings: 24 h
T1 construct: expressed in transfected cells; host or cells: S. cerevisiae ole1Δ strain (W303 pdr1Δ pdr3Δ background), plasmid pRS316 with TDH3 promoter and CYC1 terminator
Excerpt: (§1) To generate yeast strains expressing SCD1 or SCD5 as the sole desaturase, the human SCD1 and SCD5 genes were cloned from cDNAs (Harvard PlasmID database Clone ID HsCD00340237 for SCD1 and HsCD00342695 for SCD5) into yeast plasmid pRS316 (ATCC 77145) between the yeast TDH3 promoter and the CYC1 terminator. The coding sequence of yeast OLE1 was also cloned into this plasmid). These clones were then transformed into the ole1d strain and plated on CSM-Ura media (CSM lacking uracil) with 2% glucose (w/v) and independent colonies were isolated and amplified.
(§2) For experiments using a plasmid-borne copy of Ole1, SCD1, or SCD5 (FIGS. 3B, 6, and 7), media lacking uracil (SX-Ura, where X is glucose, raffinose, or galactose), was used for all steps of the compound profiling protocol to ensure its maintenance throughout the assay.
(§3) After yeast delivery, assay plates were incubated under humidified conditions at 30° C. for 24 to 40 h. ApoE4 rescue experiments were stopped at 24 h, aSyn experiments at 40 h, Ole1 at 24 h, and SCD1/SCD5 at 40 h. The growth of yeast was monitored by reading the OD600 of each well using a microplate reader (Perkin Elmer EnVision™). For model rescue experiments, raw data were processed by background subtracting and calculating a fold-change relative to DMSO control [(EXP-0.035)/(DMSO-0.035)—where 0.035 is the OD600 contributed by an empty well containing 30 μL of media alone]. For growth inhibition of wild-type cells, raw data were processed by background subtracting and converting values to a percent of the nontreated condition for that strain [(EXP-0.035)/(DMSO-0.035)×100%].

human SCD5 = target: T2, human SCD5 (Homo sapiens, UniProt Q86SK9); experiment: Growth of humanized yeast surviving solely on human SCD5; type: cell-based; settings: for half-maximal inhibitory concentration (IC50), SCD5 humanized strain: growth inhibition
T2 construct: host or cells: S. cerevisiae ole1Δ strain (W303 pdr1Δ pdr3Δ background), plasmid pRS316 with TDH3 promoter and CYC1 terminator
T2 sequence (Q86SK9 1-330): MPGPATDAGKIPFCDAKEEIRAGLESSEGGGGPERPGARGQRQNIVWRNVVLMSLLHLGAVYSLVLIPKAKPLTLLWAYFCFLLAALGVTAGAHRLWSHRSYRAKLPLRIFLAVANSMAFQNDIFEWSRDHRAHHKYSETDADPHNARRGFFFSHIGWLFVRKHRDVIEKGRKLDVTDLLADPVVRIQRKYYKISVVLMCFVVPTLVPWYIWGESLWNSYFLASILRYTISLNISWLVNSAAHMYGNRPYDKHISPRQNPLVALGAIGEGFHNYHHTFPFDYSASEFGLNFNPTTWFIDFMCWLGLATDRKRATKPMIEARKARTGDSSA
Excerpt: as §1, §2, §3

human SCD1 = target: T3, human SCD1 (Homo sapiens, UniProt O00767); experiment: Growth of humanized yeast surviving solely on human SCD1; type: cell-based; settings: for half-maximal inhibitory concentration (IC50), SCD1 humanized strain: growth inhibition
T3 construct: host or cells: S. cerevisiae ole1Δ strain (W303 pdr1Δ pdr3Δ background), plasmid pRS316 with TDH3 promoter and CYC1 terminator
T3 sequence (O00767 1-359): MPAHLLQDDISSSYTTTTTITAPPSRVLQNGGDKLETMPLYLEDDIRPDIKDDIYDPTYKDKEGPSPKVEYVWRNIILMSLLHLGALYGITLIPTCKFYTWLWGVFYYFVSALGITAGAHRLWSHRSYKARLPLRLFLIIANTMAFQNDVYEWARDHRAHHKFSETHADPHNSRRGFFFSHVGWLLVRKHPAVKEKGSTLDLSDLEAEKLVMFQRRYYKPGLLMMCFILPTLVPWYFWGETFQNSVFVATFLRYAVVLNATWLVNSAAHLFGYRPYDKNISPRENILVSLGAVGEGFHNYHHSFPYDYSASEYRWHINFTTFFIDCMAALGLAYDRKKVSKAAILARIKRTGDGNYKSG
Excerpt: The coding sequence of yeast OLE1 was also cloned into this plasmid). These clones were then transformed into the ole1d strain and plated on CSM-Ura media (CSM lacking uracil) with 2% glucose (w/v) and independent colonies were isolated and amplified.
as §2
After yeast delivery, assay plates were incubated under humidified conditions at 30° C. for 24 to 40 h. ApoE4 rescue experiments were stopped at 24 h, aSyn experiments at 40 h, Ole1 at 24 h, and SCD1/SCD5 at 40 h. The growth of yeast was monitored by reading the OD600 of each well using a microplate reader (Perkin Elmer EnVision™).

ApoE4 = ApoE4 Alzheimer's disease yeast model, rescue of toxicity (OD600 growth); type: cell-based, Saccharomyces cerevisiae; settings: 12-point dose; ApoE4 expression induced
Excerpt: Strain ApoE-mga2Δ was generated by amplifying 1000 base pairs (bp) upstream and downstream of the MGA2 ORF in a strain in which MGA2 was deleted using a G418 (GENETICIN®) resistance cassette (kanMX) (Piotrowski et al. Proc. Natl. Acad. Sci. USA 112(12):E1490-1497, 2015) and transforming the resulting deletion cassette into the ApoE4 strain in the BY4741 (ATCC 201388) genetic background. The ApoE strain is described, for example, in International Patent Application Publication No. WO 2016/040794, which is incorporated herein by reference in its entirety.
Yeast were cultured using standard techniques in complete synthetic media (CSM) and yeast nitrogen base supplemented with 2% (w/v) carbon source (glucose, raffinose, or galactose) to regulate the expression of the toxic disease protein. An initial starter culture was inoculated in 3 mL CSM-Glucose media and incubated overnight in a 30° C. shaker incubator (225 rpm). Saturated morning cultures were then diluted 1:20 in fresh CSM-Raffinose media and grown for 6 h to an OD600 (optical density) of 0.4-0.8 at 30° C. with shaking. […]
(§4) After yeast delivery, assay plates were incubated under humidified conditions at 30° C. for 24 to 40 h. […] The growth of yeast was monitored by reading the OD600 of each well using a microplate reader (Perkin Elmer EnVision™). […]

yeast = experiment: Yeast growth inhibition in control / wild-type condition (OD600); type: cell-based, Saccharomyces cerevisiae; settings: ApoE4 strain under non-inducing conditions (raffinose); at concentrations just above Emax of rescue
Excerpt: Strain GMYF was constructed from the ABC16/Green monster strain described in Suzuki et al. Nat. Methods 8(2):159-164, 2011. In this strain, YAP1 was deleted using a HIS3-MX6 cassette, and FLR1 was deleted using a NAT-MX6 cassette using standard methods. The knockout cassettes were PCR-amplified from plasmid templates (see, e.g., Bahler et al. Yeast 14(10):943-951, 1998; Longtine et al. Yeast 14(10):953-961, 1998) and transformed into yeast using lithium acetate-based transformation (Gietz et al. Methods Mol. Biol. 1205:1-12, 2014). The yap1::his3 deletion strain was selected on media lacking histidine and flr1::NAT on plates containing 100 μg/mL nourseothricin. All strains were confirmed by diagnostic PCR. Strain W303 pdr1Δ pdr3Δ was constructed from W303-1A (American Type Culture Collection (ATCC) 208352) by deleting PDR1 and PDR3 with kan-MX6 cassettes separately in MATa and MATa W303a isolates, mating, sporulating, and identifying the double deletion haploids by tetrad dissection and identification of non-parental ditype tetrads. Strain W-erg3 was derived from W303 pdr1 Δ pdr3Δ by deleting SNQ2 with NAT-MX6, YAP1 with HIS3-MX6, and ERG3 with BleMX. […]
as §4

[1] = tested on: cellular fatty acid desaturase activity (Ole1); experiment: Quantitative lipid profiling of treated yeast cells by LC-MS/MS; type: cell-based, Saccharomyces cerevisiae
Procedure: FIGS. 8A-8D are graphs showing that treatment of yeast cells with the 1,2,4-oxadiazole Compound 2 inhibits lipid desaturation. Exponentially-growing wild-type yeast cells were treated with the indicated doses of the 1,2,4-oxadiazole Compound 2 for the indicated times before cellular lysis, lipid extraction, and analysis by global LC-MS/MS profiling. The relative abundance (fraction of total cellular lipid signal) after 1.5 h and 8 h of the most abundant saturated lipid, phosphatidylcholine 26:0, is depicted in FIGS. 8A and 8B, respectively. The relative abundance after 1.5 h and 8 h drug treatment of the most abundant lipid with 2 or more degrees of unsaturation, phosphatidylcholine 16:1; 18:1, is depicted in FIGS. 8C and 8D, respectively.
Overnight cultures of yeast strain W303 pdr1Δ pdr3Δ were diluted into CSM media with 2% (w/v) raffinose, OD600 0.25, and grown for 4 h before resuspending at an OD600 of 0.2 in CSM media with 2% (w/v) galactose and adding Compound 2 or DMSO at the indicated concentrations. Cells were grown for the indicated timepoints before centrifugation, washing once in PBS, and freezing pellets. Lipids were extracted from pellets by resuspending the pellets in 600 μL methanol, 300 μL water, and 400 μL chloroform, followed by cell lysis by vortexing with glass beads for 1 min. Samples were then centrifuged at 10,000×g for 10 min, and the bottom layer that formed (organic/lipids) was moved into a new tube and evaporated. Samples were then analyzed by LC/MS/MS using a Thermo Scientific Q Exactive™ Orbitrap™ coupled to a Dionex UltiMate® 3000 ultra-high performance liquid chromatography system, following the method described in Tafesse et al. PLoS Pathog. 11(10): e1005188, 2015.

T1 sequence (P21147 whole entry T449L/L450T): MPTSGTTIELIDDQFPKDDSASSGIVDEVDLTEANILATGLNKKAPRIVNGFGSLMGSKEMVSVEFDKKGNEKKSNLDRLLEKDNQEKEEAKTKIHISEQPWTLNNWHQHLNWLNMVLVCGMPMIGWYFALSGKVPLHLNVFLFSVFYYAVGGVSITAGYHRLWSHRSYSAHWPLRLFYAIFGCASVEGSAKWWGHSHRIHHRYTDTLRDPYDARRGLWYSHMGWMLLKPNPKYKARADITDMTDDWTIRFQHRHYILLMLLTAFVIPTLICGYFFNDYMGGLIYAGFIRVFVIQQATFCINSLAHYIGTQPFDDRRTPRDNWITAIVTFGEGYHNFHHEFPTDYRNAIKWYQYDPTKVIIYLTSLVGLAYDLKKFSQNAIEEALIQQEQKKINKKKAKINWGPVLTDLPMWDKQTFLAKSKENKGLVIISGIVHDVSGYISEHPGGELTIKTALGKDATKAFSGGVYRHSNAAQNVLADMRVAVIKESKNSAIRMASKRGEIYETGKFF

## O=C(O)Cn1nnc(-c2cc(N3CCC(Oc4cc(F)ccc4Br)CC3)no2)n1 [MK-8245]
Yeast OLE1
  growth of yeast strain expressing Ole1 (percent of DMSO-treated condition): resistant
Human SCD5
  half-maximal inhibitory concentration (IC50), SCD5 humanized strain: low nanomolar

## Cc1nnc(-c2ccc(N3CCC(Oc4ccccc4C(F)(F)F)CC3)nn2)s1 [MF-438]
Yeast OLE1
  growth of yeast strain expressing Ole1 (percent of DMSO-treated condition): resistant
Human SCD1
  half-maximal inhibitory concentration (IC50), SCD1 humanized strain: low nanomolar
Human SCD5
  half-maximal inhibitory concentration (IC50), SCD5 humanized strain: low nanomolar

## COc1ccc(-c2noc(C3CCN(C(=O)CNC(=O)c4ccccc4)CC3)n2)cc1OC [Compound 1, N-(2-(4-(3-(3,4-dimethoxyphenyl)-1,2,4-oxadiazol-5-yl)piperidin-1-yl)-2-oxoethyl)benzamide]
ApoE4
  rescue in ApoE4 model, dose-response curve (raw OD600): bell-shaped dose-response curve
yeast
  growth in control condition: growth decreased

## CNC(=O)c1cccc(NC(=O)N2CCC(Oc3ccccc3Cl)CC2)c1 [Compound A939572]
Yeast OLE1
  growth of yeast strain expressing Ole1 (percent of DMSO-treated condition): resistant
Human SCD1
  half-maximal inhibitory concentration (IC50), SCD1 humanized strain: low nanomolar
Human SCD5
  half-maximal inhibitory concentration (IC50), SCD5 humanized strain: low nanomolar

## C[C@@H]1C[C@@H]([C@H](O)CC2CC(=O)NC(=O)C2)C(=O)[C@@H](C)C1 [Cyclohexamide]
Yeast OLE1
  growth of yeast strain expressing Ole1 (percent of DMSO-treated condition): inhibited growth of all three strains with the same potency
Human SCD1; 40 h
  growth of SCD1-expressing yeast (percent of DMSO-treated condition): inhibited growth of all three strains with the same potency
Human SCD5; 40 h
  growth of SCD5-expressing yeast (percent of DMSO-treated condition): inhibited growth of all three strains with the same potency

## Cc1nn(C)c2cc(-c3noc(C4CCN(C(=O)CNC(=O)c5ccccc5)CC4)n3)ccc12 [Compound 2, N-(2-(4-(3-(1,3-dimethyl-1H-indazol-6-yl)-1,2,4-oxadiazol-5-yl)piperidin-1-yl)-2-oxoethyl)benzamide]
[1]
  lipid desaturation in yeast cells: inhibited lipid desaturation
[1]; 8 h treatment, wild-type yeast
  decrease in abundance of unsaturated lipid phosphatidylcholine 16:1, 18:1: > 12 fold
[1]; after 8 h treatment, wild-type yeast
  increase in abundance of saturated lipid phosphatidylcholine 26:0: > 300 fold
